Measurements taken from publication PMC9449960, “Pamoic acid is an inhibitor of HMGB1·CXCL12 elicited chemotaxis and reduces inflammation in murine models of Pseudomonas aeruginosa pneumonia” (Molecular Medicine, 2022).

Legend:
HMGB1 = molecular target: T1, HMGB1 (Mus musculus, UniProt P63158); test: NMR 1H-15N HSQC titration with lineshape analysis; STD, waterLOGSY, NOEs; type: binding
T1 construct: residues 1–215
T1 sequence (P63158 1-215): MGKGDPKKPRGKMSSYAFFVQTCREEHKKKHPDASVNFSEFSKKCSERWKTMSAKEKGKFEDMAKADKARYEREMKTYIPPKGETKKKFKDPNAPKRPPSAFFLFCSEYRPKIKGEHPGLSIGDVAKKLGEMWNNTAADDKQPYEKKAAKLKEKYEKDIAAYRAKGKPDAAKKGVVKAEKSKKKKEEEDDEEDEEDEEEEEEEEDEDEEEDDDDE

CXCL12 = molecular target: T2, CXCL12 (Homo sapiens, UniProt P48061); test: NMR titration of […]-CXCL12 (chemical shift perturbation); type: binding
T2 construct: recombinant human CXCL12
T2 sequence (P48061 22-93): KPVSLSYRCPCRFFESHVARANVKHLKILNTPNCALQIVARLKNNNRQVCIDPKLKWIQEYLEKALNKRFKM

SMILES: O=C(O)c1cc2ccccc2c(Cc2c(O)c(C(=O)O)cc3ccccc23)c1O [PAM, pamoic acid]
- Kd (HMGB1): 170 ± 17 µM
- Kd (CXCL12): 66 ± 4 µM
